Results taken from ChEMBL document CHEMBL1201862, “PubChem BioAssay data set” (2004).
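Following 48 hours of exposure in 96-well plates, responses at five concentrations were used to interpolate endpoints linearly. At the GI50, growth is halved.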 Calls of active or inactive are those of the source. No stated cut-off is given here; in the data, active = GI50 up to about 1.1 µM and inactive = higher.

Legend:
Assay in all cases: DTP human tumour cell line panel, 48 h
MDA-N = test system: MDA-N
SK-OV-3 = test system: SK-OV-3
SW-620 = test system: SW-620
HCT-15 = test system: HCT-15
A498 = test system: A498
U-251 = test system: U-251
HT-29 = test system: HT-29
SF-539 = test system: SF-539
MDA-MB-435 = test system: MDA-MB-435
EKVX = test system: EKVX
KM12 = test system: KM12
SF-268 = test system: SF-268
Malme-3M = test system: Malme-3M
NCI-H23 = test system: NCI-H23
SN12C = test system: SN12C
UACC-257 = test system: UACC-257
HL-60 = test system: HL-60
SR = test system: SR
HCC 2998 = test system: HCC 2998
LOX IMVI = test system: LOX IMVI

| SMILES | GI50 (MDA-N) | GI50 (SK-OV-3) | GI50 (SW-620) | GI50 (HCT-15) [µM] | GI50 (A498) | GI50 (U-251) | GI50 (HT-29) | GI50 (SF-539) | GI50 (MDA-MB-435) | GI50 (EKVX) | GI50 (KM12) | GI50 (SF-268) | GI50 (Malme-3M) | GI50 (NCI-H23) | GI50 (SN12C) | GI50 (UACC-257) | GI50 (HL-60) | GI50 (SR) | GI50 (HCC 2998) | GI50 (LOX IMVI) |
| --- | --- | --- | --- | --- | --- | --- | --- | --- | --- | --- | --- | --- | --- | --- | --- | --- | --- | --- | --- | --- |
| Cc1ccc(C2=Nc3ccccc3SC(c3cccc([N+](=O)[O-])c3)C2)cc1 (stereo unspecified) | 15.7 µM (inactive) | 31.1 µM (inactive) | 3.18 µM (inactive) | 48.1 | > 100 µM (inactive) | 4.59 µM (inactive) | 5.96 µM (inactive) | 3.8 µM (inactive) | 13.1 µM (inactive) | 49.7 µM (inactive) | 8.04 µM (inactive) | 16.2 µM (inactive) | 26.7 µM (inactive) | 11.8 µM (inactive) | 34.1 µM (inactive) | 24.7 µM (inactive) |  |  |  |  |
| COc1cc(O)ccc1C(=S)SC |  | > 100 µM (inactive) | > 100 µM (inactive) | 40.8 |  | 54.2 µM (inactive) | > 100 µM (inactive) | 76.2 µM (inactive) | 68.5 µM (inactive) | 11.4 µM (inactive) | 69.7 µM (inactive) | 67.1 µM (inactive) | 39.2 µM (inactive) | 40.6 µM (inactive) | 1.45 µM (inactive) | 51.5 µM (inactive) | 23.6 µM (inactive) | 43.2 µM (inactive) |  |  |
| O=C(c1ccccc1)c1ccc2c(c1)nc1n2C(c2c(F)cccc2F)SC1 (stereo unspecified) | 19.7 µM (inactive) | 30.5 µM (inactive) | 37.2 µM (inactive) | 36.6 | 19.5 µM (inactive) | 28.8 µM (inactive) | 13 µM (inactive) | 28.6 µM (inactive) | 27.3 µM (inactive) | 11.5 µM (inactive) | 11.2 µM (inactive) | 49.9 µM (inactive) | 31.2 µM (inactive) | 28.8 µM (inactive) | 18.7 µM (inactive) | 29.6 µM (inactive) |  |  | 36.5 µM (inactive) | 25.6 µM (inactive) |
| CC(C)(C)OC(=O)NC(Cc1ccccc1)OCc1ccccc1 (stereo unspecified) | 19.3 µM (inactive) | 17.6 µM (inactive) | 17.2 µM (inactive) | 19.4 |  | > 10 µM (inactive) | 21.1 µM (inactive) | 21.4 µM (inactive) | 19.4 µM (inactive) | 17.4 µM (inactive) | 19.5 µM (inactive) | 18.4 µM (inactive) | 23.6 µM (inactive) | 16 µM (inactive) | 26.1 µM (inactive) | > 10 µM (inactive) |  | 30.7 µM (inactive) | 23.9 µM (inactive) |  |
| N#Cc1nc(COCc2ccccc2)oc1N | > 100 µM (inactive) | > 100 µM (inactive) | > 100 µM (inactive) | 51.1 |  | > 100 µM (inactive) | > 100 µM (inactive) | > 100 µM (inactive) | > 100 µM (inactive) | > 100 µM (inactive) | 58.6 µM (inactive) | > 100 µM (inactive) | 28.7 µM (inactive) | > 100 µM (inactive) | > 100 µM (inactive) | > 100 µM (inactive) |  | > 100 µM (inactive) | > 100 µM (inactive) | > 100 µM (inactive) |
| CC1OC(OC2C(OC(=O)[C@@H]3CC(C)(C)C[C@H]4C5=CC[C@@H]6[C@@]7(C)C[C@H](O)[C@H](OC8OC(CO)C(O)C(O)C8O)[C@@](C)(CO)[C@@H]7[C@H](O)C[C@@]6(C)[C@]5(C)CC[C@@]34C)OCC(O)C2O)C(O)C(O)C1O (stereo partly specified) | > 7.5 µM (inactive) | > 7.5 µM (inactive) | > 7.5 µM (inactive) | > 7.5 |  | > 7.5 µM (inactive) | > 7.5 µM (inactive) | > 7.5 µM (inactive) | > 7.5 µM (inactive) | > 7.5 µM (inactive) | > 7.5 µM (inactive) | > 7.5 µM (inactive) | > 7.5 µM (inactive) | > 7.5 µM (inactive) | > 7.5 µM (inactive) | > 7.5 µM (inactive) | > 7.5 µM (inactive) |  | > 7.5 µM (inactive) | > 7.5 µM (inactive) |
| COc1ccccc1/C=C1\NC(=S)N(/C=C2\C(=O)Oc3ccccc3C2=O)C1=O |  | 80.4 µM (inactive) | 53.2 µM (inactive) | 32.2 |  | 23.2 µM (inactive) | 43.5 µM (inactive) | 25.5 µM (inactive) | 35.2 µM (inactive) | 16.9 µM (inactive) | 47 µM (inactive) | 98.6 µM (inactive) |  | 35.9 µM (inactive) | > 100 µM (inactive) | 42.4 µM (inactive) | 9.84 µM (inactive) |  | 53.7 µM (inactive) | 60.5 µM (inactive) |
| CC(=O)SSC1(Cl)C(C)(C)C(Cl)(SSC(C)=O)C1(C)C (stereo unspecified) | 65 µM (inactive) | > 100 µM (inactive) | 40.1 µM (inactive) | 34.7 | 67.5 µM (inactive) | 33.3 µM (inactive) | 49.4 µM (inactive) | 24.5 µM (inactive) | 49.1 µM (inactive) | 39.9 µM (inactive) | 39.4 µM (inactive) | 43.6 µM (inactive) | 84.5 µM (inactive) | 57.1 µM (inactive) | 77.8 µM (inactive) | 41.3 µM (inactive) |  |  |  | 33.3 µM (inactive) |
